The values below come from paper PMC10135057, “Molecular Modification of Kex2 P1’ Site Enhances Expression and Druggability of Fungal Defensin” (Antibiotics, 2023).

In series [1] the test system is S. aureus ATCC 43300. Put plainly: microbe, parasite or virus in culture. It counts as cell-based, Staphylococcus aureus. The note with it: S. aureus ATCC 43300; for MIC: Staphylococcus aureus, ATCC43300, read-out: MICa (MIC of drug alone). The method, then: The effects of combination were evaluated by calculating the FICI. FICI ≤ 0.5 was defined as synergy, 0.5 < FICI ≤ 1 was defined as additivity, 1 < FICI ≤ 4 was defined as indifference, and FICI > 4 was defined as antagonism.

The subject of another series is S. aureus E48. Put plainly: microbe, parasite or virus in culture. It counts as cell-based, Staphylococcus aureus. Particulars: S. aureus E48, CLSI procedure, triplicate, read-out: MIC. The method, then: (§1) The minimal inhibitory concentrations (MICs) assay was performed according to the CLSI procedures with the final peptide concentrations of 256, 128, 64, 32, 16, 8, 4, 2, 1, and 0.5 μg/mL, respectively. All tests were conducted in triplicate.

The test system of another series is S. aureus CVCC 546. Briefly: microbe, parasite or virus in culture. The note with it: S. aureus CVCC 546, CLSI procedure, triplicate, read-out: MIC. It counts as cell-based, Staphylococcus aureus. The method, then: as §1
Another series has as its system S. aureus ATCC 25923. Briefly: microbe, parasite or virus in culture. It counts as cell-based, Staphylococcus aureus. Particulars: S. aureus ATCC 25923, CLSI procedure, triplicate, read-out: MIC. The procedure: as §1
In series [2] the test system is S. epidermidis ATCC 12228. Put plainly: microbe, parasite or virus in culture. The note with it: S. epidermidis ATCC 12228, CLSI procedure, triplicate, read-out: MIC. It counts as cell-based, Staphylococcus epidermidis. The procedure:
as §1

The subject of series [3] is S. aureus ATCC 43300. Put plainly: Bactericidal kinetics (time-killing curves). It counts as cell-based, Staphylococcus aureus. Particulars: FNZ 1×, 2×, 4× MIC; ampicillin 2× MIC; S. aureus ATCC 43300. The procedure:
The S. aureus ATCC 43300 in logarithmic growth stage was diluted to a final concentration of 10^6 CFU/mL. […] Samples were taken at 0, 0.5, 1, 2, 4, 6, 8, 10, 20, and 24 h, serially diluted, and visible colonies were counted on MHA plates.

Series [4] deals with Escherichia coli ATCC 25922. Put plainly: microbe, parasite or virus in culture. It counts as cell-based. Particulars: Escherichia coli ATCC 25922, CLSI procedure, triplicate, read-out: MIC. The procedure:
as §1

The subject of series [5] is Staphylococcus aureus ATCC 43300. Put plainly: microbe, parasite or virus in culture. It counts as cell-based. The note with it: S. aureus ATCC 43300, CLSI procedure, triplicate, read-out: MIC. The method, then: as §1
The test system of series [6] is S. aureus ATCC 43300. Put plainly: Stability in simulated gastric fluid (MIC after treatment). It counts as in vitro ADME, Staphylococcus aureus. The note with it: 1 h, MIC vs S. aureus ATCC 43300, triplicate. The method, then:
(§2) The tolerance of FNZ to temperature and pH was evaluated. The stability of FNZ in simulated gastric fluid, artificial intestinal fluid and mouse serum was carried out as previously described. […] All assays were conducted in triplicate.

Another series concerns RAW264.7 cells. Put plainly: Cytotoxicity, MTT assay. It counts as cell-based, mouse. Particulars: at 128 μg/mL, n = 3. The source says:
The MTT assay was used to test the cytotoxicity of FNZ to the RAW 264.7 cells.
Background: Tetrazolium dyes change colour on reduction, which living cells bring about.

Series [7] has as its system S. aureus ATCC 43300. Briefly: Salts stability (MIC after incubation with Na+ or Mg2+). It counts as cell-based, Staphylococcus aureus. The note with it: 37 °C, 1 h, MIC vs S. aureus ATCC 43300, triplicate, read-out: MIC after treatment.
The test system of series [8] is S. aureus ATCC 43300. Put plainly: Thermal stability (MIC after heat treatment). It counts as physicochemical, Staphylococcus aureus. Particulars: MIC vs S. aureus ATCC 43300, triplicate. The procedure: as §2
Series [9] deals with Gram-negative bacteria (E. coli, S. enterica, P. aeruginosa). Put plainly: MIC, summary over Gram-negative bacteria. It counts as cell-based. The method, then: as §1
In series [10] the test system is Pseudomonas aeruginosa CICC 20625. Briefly: Minimal inhibitory concentration (MIC). It counts as cell-based. The note with it: CLSI procedure, triplicate. The method, then:
as §1

The subject of series [11] is Salmonella enterica ATCC 13076. Briefly: Minimal inhibitory concentration (MIC). The note with it: CLSI procedure, triplicate. It counts as cell-based. The method, then: as §1
In series [12] the test system is S. aureus ATCC 43300. Put plainly: pH stability (MIC after pH treatment). Particulars: MIC vs S. aureus ATCC 43300, triplicate. It counts as physicochemical, Staphylococcus aureus. The method, then:
as §2

The subject of series [13] is S. aureus ATCC 43300. Briefly: Stability in mouse serum (MIC after treatment). It counts as in vitro ADME, Staphylococcus aureus. Particulars: mouse serum (25%), 1–4 h. The method, then: as §2
Series [14] has as its system G+ bacteria (S. aureus, S. hyicus, S. agalactiae, S. epidermidis). Put plainly: MIC, summary over Gram-positive bacteria. Particulars: range over S. aureus. It counts as cell-based. The procedure: as §1

“And” between values parts separate entries of the source, which are not always exact repeats. Equal values may be shown once. Read-outs that look alike come from different tables or passages of the source. Bridge positions count the residues as written; N and C are the ends. Ends that are not written are not given here. Where only a bound is given, the exact number is not on record here.

Turning to `NC[C@H]1O[C@H](O[C@H]2[C@H](O)[C@@H](O[C@H]3O[C@H](CO)[C@@H](O)[C@H](N)[C@H]3O)[C@H](N)C[C@@H]2N)[C@H](O)[C@@H](O)[C@@H]1O` [Kan, kanamycin], the “MICa (MIC of drug alone)” value in the series on S. aureus ATCC 43300 [1] (checkerboard, 37 °C, 16 h) is 64 µg/mL. Further, the “Combination effect with FNZ (in words)” value in the series with S. aureus ATCC 43300 [1] (checkerboard) was “synergistic effect”. The FIC in the series with S. aureus ATCC 43300 [1] (combination FNZ + Kan) amounted to 0.008. Moreover, in the series with S. aureus ATCC 43300 [1] (combination FNZ + Kan, checkerboard, 37 °C, 16 h), the “MICc (MIC of drug used in combination)” value was determined as 0.5 µg/mL.

On to `O=C(O)c1cn(C2CC2)c2cc(N3CCNCC3)c(F)cc2c1=O` [Cip, ciprofloxacin], for which the MIC in the series with S. aureus ATCC 43300 [1] (checkerboard, 37 °C, 16 h) stood at 0.25 µg/mL. For the same compound, the “MICc (MIC of drug used in combination)” value in the series with S. aureus ATCC 43300 [1] (combination FNZ + Cip, checkerboard, 37 °C, 16 h) is 0.375 µg/mL.

On to `CC1(C)S[C@@H]2[C@H](NC(=O)[C@H](N)c3ccccc3)C(=O)N2[C@H]1C(=O)O` [Ampicillin, ampicillin], for which the MIC in the series on S. aureus ATCC 43300 [1] (checkerboard, 37 °C, 16 h) is 2 µg/mL; with S. aureus E48 (Staphylococcus aureus), 0.25 µg/mL and 0.62 µM; in the series on S. aureus CVCC 546 (Staphylococcus aureus, CVCC546), 0.25 µg/mL and 0.62 µM; with S. aureus ATCC 25923 (Staphylococcus aureus, ATCC25923) it was 0.25 µg/mL and 0.62 µM; in series [2] (Staphylococcus epidermidis, ATCC12228) it was 2 µg/mL and 2.48 µM; in series [4] (ATCC25922) it was 1 µg/mL and 1.24 µM. For the same compound, the MIC in [5] (Staphylococcus aureus, ATCC43300) was 2 µg/mL and 2.48 µM. Further, the “Combination effect with FNZ (in words)” value with S. aureus ATCC 43300 [1] (checkerboard) was “synergistic effect”. Besides, the FIC in the series with S. aureus ATCC 43300 [1] (combination FNZ + Amp) came to 0.063. Moreover, the “Regrowth (rebound of colonies) up to 24 h” value in the series on S. aureus ATCC 43300 [3] was “rebound situation was observed”.

In the case of “FGFGCNGPWNEDDLRCHNHCKSIKGYKGGYCAKGGFVCKCY (disulfide 5-31, 16-38, 20-40) [FNZ]”, the FIC is listed as 0.016 with S. aureus ATCC 43300 [1] (combination FNZ + Amp), 0.031 in the series on S. aureus ATCC 43300 [1] (combination FNZ + Cip), 0.063 with S. aureus ATCC 43300 [1] (combination FNZ + Kan) and 0.125 with S. aureus ATCC 43300 [1] (combination FNZ + Van). The MIC in the series with S. aureus E48 is given as 0.88 µM; with S. aureus CVCC 546 it was 1.75 µM; with S. aureus ATCC 25923 it was 1.75 µM; in the series with S. aureus ATCC 43300 [7] (50 mM Mg2+), 1.75 µM; in the series with S. aureus ATCC 43300 [7] (50 mM Na+), 1.75 µM; in the series on S. aureus ATCC 43300 [7] (100 mM Mg2+), 1.75 µM. Moreover, the MIC in the series on S. aureus ATCC 43300 [7] (100 mM Na+) is 1.75 µM; with S. aureus ATCC 43300 [7] (150 mM Mg2+), 1.75 µM; in the series with S. aureus ATCC 43300 [7] (150 mM Na+), 1.75 µM; in the series on S. aureus ATCC 43300 [7] (300 mM Mg2+) it was 3.5 µM; in the series on S. aureus ATCC 43300 [7] (300 mM Na+), 1.75 µM; in the series with S. aureus ATCC 43300 [7] (500 mM Mg2+) it was more than 7 µM. Moreover, the MIC in the series with S. aureus ATCC 43300 [7] (500 mM Na+) is recorded as 3.5 µM; in series [2] it was 1.75 µM; in series [10] it was more than 28.05 µM; in series [11] it was more than 28.05 µM; in series [4], more than 28.05 µM; in series [5], 1.75 µM. Further, the MIC after treatment is 8 μg/mL and 1.75 μM in the series on S. aureus ATCC 43300 [6]; 1.75 µM against S. aureus ATCC 43300 [8] (20 °C for 1 h); 1.75 µM against S. aureus ATCC 43300 [8] (40 °C for 1 h); 1.75 µM with S. aureus ATCC 43300 [8] (60 °C for 1 h); 1.75 µM against S. aureus ATCC 43300 [8] (80 °C for 1 h); 3.5 µM in the series on S. aureus ATCC 43300 [8] (100 °C for 1 h). The MIC after treatment in the series on S. aureus ATCC 43300 [12] (pH 2) is 1.75 µM; in the series with S. aureus ATCC 43300 [12] (pH 4), 1.75 µM; against S. aureus ATCC 43300 [12] (pH 6), 1.75 µM; in the series on S. aureus ATCC 43300 [12] (pH 8), 1.75 µM; against S. aureus ATCC 43300 [12] (pH 10), 3.5 µM; in the series on S. aureus ATCC 43300 [13] (MIC vs S. aureus ATCC 43300, triplicate), 8 μg/mL and 1.75 μM. Besides, in the series with RAW264.7 cells, the “Cell viability (survival)” value worked out at 88.56%. The “MICs, Gram-negative bacteria” value in series [9] was more than 128 µg/mL. In addition, the “Serum stability (in words)” value with S. aureus ATCC 43300 [13] (MIC read-out) is “Stable^a”. In addition, the “MICs, G+ bacteria” value in [14] was in the range of 4 to 8 µg/mL.
